Laboratory results taken from article PMC9374744, “Structural basis for receptor selectivity and inverse agonism in S1P5 receptors” (Nature Communications, 2022).

Target: T1, S1P5 (Homo sapiens, UniProt Q9H228, G231K/G234L/INS226[…]/INS240[…]/P227A/P230V/R224A/R225D/R229Q/R239A/S237M/T232D/T236K/T238R)
T1 construct: The C-terminus was truncated after Val321; hemagglutinin signal peptide (HA; […]) (N); FLAG-tag (N); Ala-Gly-Arg-Ala linker (N); PreScission cleavage site (C); 10× His tag (C, cleaved yes); made in house; host or cells: Sf9 insect cells (baculovirus, Bac-to-Bac)
Test: Microscale fluorescent (CPM) thermal stability assay
Assay type: binding
Conditions: CPM fluorescence thermal shift; purified S1P5 crystallization construct
Protocol: Cells were thawed and lysed by repetitive washes (Dounce homogenization on ice, and centrifugation at 128,600×g for 30 min at 4 °C) in hypotonic buffer (10 mM HEPES pH 7.5, 20 mM KCl, and 10 mM MgCl2) and high osmotic buffer (10 mM HEPES pH 7.5, 20 mM KCl, 10 mM MgCl2, and 1 M NaCl) with an addition of protease inhibitor cocktail [PIC; 500 µM 4-(2-aminoethyl)benzenesulfonyl fluoride hydrochloride (Gold Biotechnology), 1 µM E-64 (Cayman Chemical), 1 µM leupeptin (Cayman Chemical), 150 nM aprotinin (A.G. Scientific)] with the ratio of 50 μl per 100 ml of lysis buffer. […] Stability and stabilizing effect of the ligand were measured by microscale fluorescent thermal stability assay[55] […]
Microscale fluorescent thermal stability assay[55] was conducted using a CPM dye (7-Diethylamino-3-(4-maleimidophenyl)-4-methylcoumarin, Invitrogen) dissolved in DMF at 10 mM. […] 1 µg of the target protein was added to 50 µL of working buffer (25 mM HEPES, 250 mM NaCl, 10%v/v glycerol, 0.05%w/v DDM, 0.01%w/v CHS) with CPM, and the melting curve was recorded on a Rotor-Gene Q real-time PCR cycler (Qiagen) using a temperature ramp from 28 to 98 °С with 2 °С/min rate. The fluorescence signal was measured in the Blue channel (excitation 365 nm, emission 460 nm), and the melting temperature was calculated as the maximum of the fluorescence signal derivative with respect to temperature.

T1 sequence (Q9H228 other isoform, or with tags, fused parts or gaps with the stated changes): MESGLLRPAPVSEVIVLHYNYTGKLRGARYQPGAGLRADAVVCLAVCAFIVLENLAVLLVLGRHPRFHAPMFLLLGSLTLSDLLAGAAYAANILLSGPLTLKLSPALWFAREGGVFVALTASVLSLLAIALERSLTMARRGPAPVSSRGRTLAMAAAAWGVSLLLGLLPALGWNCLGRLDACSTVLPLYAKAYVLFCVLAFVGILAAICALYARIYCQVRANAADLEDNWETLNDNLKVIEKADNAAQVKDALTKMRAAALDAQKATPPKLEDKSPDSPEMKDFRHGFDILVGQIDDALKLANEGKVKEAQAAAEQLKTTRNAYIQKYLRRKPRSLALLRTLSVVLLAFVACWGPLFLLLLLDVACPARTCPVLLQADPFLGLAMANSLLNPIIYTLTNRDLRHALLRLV

## O=C(O)CCCN1CCc2cccc(OCCc3cccc4ccccc34)c2CC1 [ONO-5430608, 4-{6-[2-(1-naphthyl)ethoxy]-1,2,4,5-tetrahydro-3H-3-benzazepin-3-yl} butanoic acid]
  increase of the thermal stability of S1P5: 19 °C
